Key:
[1] = test system: HCMV strain AD169; assay: HCMV plaque reduction (inhibition of virus replication in cell culture); format: cell-based, human cytomegalovirus; settings: for IC50: Human betaherpesvirus 5, MRC5, HCMV strain AD169, plaque formation, MRC-5 cells, read-out: IC50 = 50% Inhibitory Concentration of HCMV strain AD169 induced plaque formation in MRC-5 Cells
Text: All materials required for this testing are commercially available. The testing method described is well documented in the literature, see, e.g. Colacino, J M and Lopez C., 1983, “Efficacy and selectivity of some nucleoside analogs as anti-human cytomegalovirus agents.” Antimicrob. Agents Chemother. 24:505-508; Colacino, J M and Lopez C., 1985, “Antiviral activity of 2′-deoxy-2′-fluoro-beta-D-arabinofuranosyl-5-iodocytosine against human cytomegalovirus in human skin fibroblasts.” Antimicrob. Agents Chemother. 28:252-258; and Mauldin, S C, Paget C J Jr., Jones C D, Colacino J M, Baxter A J, Staschke K A, Johansson N G, and Vrang L., 1998, “Synthesis and antiviral activity of prodrugs of the nucleoside 1-[2′,3′-dideoxy-3′-C-(hydroxymethyl)-beta-D-erythropentofuranosyl] cytosine.” Bioorg. Med Chem. 6:577-585.
Human fibroblast cells, foreskin or fetal lung cells, are infected with human cytomegalovirus. The cells are incubated with standard cell culture media containing no or increasing concentrations of ALIMTA. […] Additionally the yield of virus produced in the non-treated infected cell control cultures is compared to the yield of virus produced in the treated infected cell cultures.
The percent inhibition of virus replication can be determined and the concentration of molecule required to inhibit viral replication by 50% (IC50) and 90% (IC90) can be calculated using linear regression analysis.

[2] = in vitro; format: cell-based; settings: human

For `Nc1nc2[nH]cc(CCc3ccc(C(=O)N[C@@H](CCC(=O)[O-])C(=O)[O-])cc3)c2c(=O)[nH]1.[Na+].[Na+]` [ALIMTA, disodium N-[4-[2-(2-amino-4,7-dihydro-4-oxo-3H-pyrrolo[2,3-d]-pyrimidin-5-yl)ethyl]benzoyl]-L-glutamic acid salt], the “Comments (HCMV screening summary)” value ([1]; HCMV strain AD169 in MRC-5 cells) was “High activity”, the IC50 [1] was 0.29 µM and the “TI (Therapeutic Index) = TC50/IC50” value ([1]; TC50 (MRC-5) / IC50 (HCMV AD169 plaque formation), called selective index in text) was over 344.8. For the same compound, the CC50 [2] was over 100 µM.

`Nc1nc(O)c2ncn(COC(CO)CO)c2n1` [Ganciclovir] showed an IC50 [1] of 6.37 µM and a CC50 [2] of over 100 µM.
